Data on 20 compounds can be found in PMC12704249, “New Mannich-type arylidenerhodanines as potent inhibitors of AChE and BChE: synthesis, biological evaluation, cytotoxicity and molecular modeling” (RSC Advances, 2025).

For assay [1], the target named is T1, AChE derived from Electrophorus electricus (Electrophorus electricus, UniProt O42275).
T1 construct: purchased Sigma-Aldrich (St. Louis, MO, USA)
Nature of the assay: AChE inhibition assay (modified Ellman's colorimetric method, Lineweaver–Burk Ki). The assay is classed as biochemical, Electrophorus electricus (electric eel). The following applies: for Ki: 0.1 M Tris–HCl pH 8.0, substrate acetylthiocholine chloride; for Selectivity (BChE/AChE): ratio of BChE Ki to AChE Ki. An excerpt: Enzyme kinetic parameters were derived by measuring initial velocities at varying substrate concentrations both in the presence and absence of inhibitors. The Ki values were obtained through Lineweaver–Burk double-reciprocal plots, where 1/V was plotted against 1/[S], allowing for graphical estimation based on the shift in intercepts.[47,48]
Background: Ellman's reagent forms a yellow product with free thiols.

Assay [2] has as its target T2, BChE isolated from equine serum (Equus caballus, UniProt P81908).
T2 construct: BChE isolated from equine serum (≥10 U per mg protein); purchased Sigma-Aldrich (St. Louis, MO, USA); host or cells: equine serum
Nature of the assay: BChE inhibition assay (modified Ellman's colorimetric method, Lineweaver–Burk Ki). It is filed as biochemical. Conditions: for Ki: 0.1 M Tris–HCl pH 8.0, substrate butyrylthiocholine iodide; for BChE Ki, fold more inhibitory than tacrine: relative to tacrine Ki; for BChE Ki, fold more inhibitory than donepezil: relative to donepezil Ki. As for the experimental part: AChE derived from Electrophorus electricus (electric eel; specific activity: 200–1000 U per mg protein) and BChE isolated from equine serum (≥10 U per mg protein) were obtained from Sigma-Aldrich (St. Louis, MO, USA). Acetylthiocholine chloride (ATChCl) and butyrylthiocholine iodide (BTChI) were utilized as the respective substrates for AChE and BChE assays. All reagent solutions were freshly prepared in 0.1 M Tris–HCl buffer at pH 8.0. The enzymatic activities were assessed spectrophotometrically following a modified protocol based on Ellman's colorimetric method.[46] […] To determine the inhibition constant (Ki), a range of inhibitor concentrations was tested under steady-state conditions. Enzyme kinetic parameters were derived by measuring initial velocities at varying substrate concentrations both in the presence and absence of inhibitors. The Ki values were obtained through Lineweaver–Burk double-reciprocal plots, where 1/V was plotted against 1/[S], allowing for graphical estimation based on the shift in intercepts.[47,48]

For assay [3], the system named is HUVEC cell line. Nature of the assay: MTT cell viability assay on HUVEC. The assay is classed as cell-based, human. As for the experimental part: The cell line was cultured in DMEM-F12 medium (Gibco, MD, USA) supplemented with 10% fetal bovine serum (FBS) (Gibco, MD, USA) and 1% penicillin/streptomycin (Gibco, MD, USA) under a 5% CO2 humidified atmosphere at 37 °C.
The MTT proliferation test was conducted to determine the impact of the compounds on cell viability in the HUVEC cell line. The cells were seeded in 96-well plates (1 × 10^4 cells per well) and subsequently allowed to grow for 24 hours. […] Following the treatment duration, MTT solution was added at a final concentration of 0.1 mg mL^−1, and the cells were incubated for 4 hours at 37 °C. Then, the supernatant was discarded, DMSO was added to allow the formazan crystals to dissolve, and the plates were incubated in the dark at room temperature for 30 minutes. The absorbance at 570 nm was determined using a microplate reader (BioTek Instruments, Inc., USA). All cytotoxicity assays were done in three times (three independent experiments). IC50 values are given as mean ± standard deviation (SD). […] The error bars in all the figures show the experimental SD.
(Formazan colour is commonly taken as a measure of viable cells.)

The subject of assay [4] is AChE. The following applies: in Fig. 1, cited from earlier work.
Assay [5] has as its system BChE. Conditions: in Fig. 1, cited from earlier work.
The mark [6] stands for this setting: Homo sapiens, HUVEC, 24 h, MTT, 24 hours treatment, mean ± SD, n = 3, read-out: HUVEC IC50.

Read-outs that look alike come from different tables or passages of the source.

T1 sequence (O42275 24-633): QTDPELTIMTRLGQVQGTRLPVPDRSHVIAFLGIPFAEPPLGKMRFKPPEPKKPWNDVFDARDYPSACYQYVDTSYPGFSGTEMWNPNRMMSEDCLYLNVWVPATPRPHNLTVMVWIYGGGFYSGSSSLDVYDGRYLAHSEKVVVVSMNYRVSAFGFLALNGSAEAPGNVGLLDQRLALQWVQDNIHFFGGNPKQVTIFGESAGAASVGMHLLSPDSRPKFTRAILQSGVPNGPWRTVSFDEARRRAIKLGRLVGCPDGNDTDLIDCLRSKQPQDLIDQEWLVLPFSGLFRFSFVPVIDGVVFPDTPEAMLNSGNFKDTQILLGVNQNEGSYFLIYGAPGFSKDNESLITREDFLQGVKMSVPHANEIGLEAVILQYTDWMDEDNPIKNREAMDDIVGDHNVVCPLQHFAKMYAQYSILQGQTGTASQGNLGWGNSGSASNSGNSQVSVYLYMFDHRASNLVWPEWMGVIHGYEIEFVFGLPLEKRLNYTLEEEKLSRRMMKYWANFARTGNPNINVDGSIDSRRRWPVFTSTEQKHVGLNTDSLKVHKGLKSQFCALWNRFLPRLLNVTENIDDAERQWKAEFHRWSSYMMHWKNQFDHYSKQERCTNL
T2 sequence (P81908 whole entry): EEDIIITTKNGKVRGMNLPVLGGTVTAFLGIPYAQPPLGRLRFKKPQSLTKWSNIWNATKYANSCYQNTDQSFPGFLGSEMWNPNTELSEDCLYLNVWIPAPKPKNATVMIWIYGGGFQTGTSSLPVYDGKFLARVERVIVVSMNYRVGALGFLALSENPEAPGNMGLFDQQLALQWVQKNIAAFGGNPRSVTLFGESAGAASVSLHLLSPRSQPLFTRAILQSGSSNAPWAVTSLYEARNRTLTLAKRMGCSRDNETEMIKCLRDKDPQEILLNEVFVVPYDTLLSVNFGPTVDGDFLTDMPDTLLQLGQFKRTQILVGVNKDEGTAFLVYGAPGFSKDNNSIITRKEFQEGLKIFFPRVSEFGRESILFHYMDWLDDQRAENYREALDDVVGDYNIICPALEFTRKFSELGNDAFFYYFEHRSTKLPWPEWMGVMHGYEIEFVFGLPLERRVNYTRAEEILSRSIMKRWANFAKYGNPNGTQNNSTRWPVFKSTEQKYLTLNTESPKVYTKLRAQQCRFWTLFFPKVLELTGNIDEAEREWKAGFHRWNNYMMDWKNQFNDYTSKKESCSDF

For orientation: Ki means a measure of affinity in units of concentration, obtained from inhibition or displacement. Low values mean higher affinity, high ones lower affinity. Turning to `C=CCN1C(=O)/C(=C/c2cc(CN3CCOCC3)c(O)c(OC)c2)SC1=S` [Compound 1, (Z)-3-Allyl-5-[4-hydroxy-3-methoxy-5-(morpholinomethyl)benzylidene]-2-thioxothiazolidin-4-one], the inhibitory constant (Ki) in assay [1] (Lineweaver–Burk plots) came to 0.0576 ± 0.0116 µM; in assay [2] (Lineweaver–Burk plots), 0.0536 ± 0.00887 µM. The “Selectivity (BChE/AChE)” value in assay [1] amounted to 0.93. In addition, the “BChE Ki, fold more inhibitory than tacrine” value in assay [2] is reported as “more than 3.16 fold”.

In the case of `C=CCN1C(=O)/C(=C/c2cc(CN3CCN(C)CC3)c(O)c(OC)c2)SC1=S` [Compound 2, (Z)-3-Allyl-5-{4-hydroxy-3-methoxy-5-[(4-methylpiperazin-1-yl)methyl]benzylidene}-2-thioxothiazolidin-4-one], the inhibition constant (Ki) in assay [1] (Lineweaver–Burk plots) is 0.046 ± 0.00521 µM; in assay [2] (Lineweaver–Burk plots), 0.0509 ± 0.0104 µM. Besides, in assay [1], the “Selectivity (BChE/AChE)” value is recorded as 1.11.

Take `C=CCN1C(=O)/C(=C/c2cc(CN3CCN(c4ccccc4)CC3)c(O)c(OC)c2)SC1=S` [Compound 3, (Z)-3-Allyl-5-{4-hydroxy-3-methoxy-5-[(4-phenylpiperazin-1-yl)methyl]benzylidene}-2-thioxothiazolidin-4-one]: the inhibition constant Ki in assay [1] (Lineweaver–Burk plots) was determined as 0.062 ± 0.0136 µM; in assay [2] (Lineweaver–Burk plots) it was 0.0677 ± 0.0114 µM. Also, the “Selectivity (BChE/AChE)” value in assay [1] is 1.09.

The IC50 is the midpoint of a concentration-inhibition curve. Regarding `C=CCN1C(=O)/C(=C/c2cc(CN3CCN(C(=O)OCC)CC3)c(O)c(OC)c2)SC1=S` [Compound 4, (Z)-3-Allyl-5-{4-hydroxy-3-methoxy-5-[(4-ethoxycarbonylpiperazin-1-yl)methyl]benzylidene}-2-thioxothiazolidin-4-one], the figures for the Ki in assay [1] (Lineweaver–Burk plots) and in assay [2] (Lineweaver–Burk plots) were 0.0287 ± 0.00612 µM and 0.033 ± 0.00921 µM, respectively. Further, the “Selectivity (BChE/AChE)” value in assay [1] was determined as 1.15. Further, in assay [3] (setting [6]), the IC50 is 73.13 ± 0.5 µM.

As to `C=CCN1C(=O)/C(=C/c2cc(CN3CCCC(C)C3)c(O)c(OC)c2)SC1=S` (stereo not shown) [Compound 5, (Z)-3-Allyl-5-{4-hydroxy-3-methoxy-5-[(3-methylpiperidin-1-yl)methyl]benzylidene}-2-thioxothiazolidin-4-one], the figures for the Ki in assay [1] (Lineweaver–Burk plots) and in assay [2] (Lineweaver–Burk plots) were 0.0953 ± 0.0112 µM and 0.0887 ± 0.0155 µM, respectively. Further, the “Selectivity (BChE/AChE)” value in assay [1] is recorded as 0.93.

As to `C=CCN1C(=O)/C(=C/c2cc(CN3CCc4ccccc4C3)c(O)c(OC)c2)SC1=S` [Compound 6, (Z)-3-Allyl-5-{3-[(3,4-dihydroisoquinolin-2(1H)-yl)methyl]-4-hydroxy-5-methoxybenzylidene}-2-thioxothiazolidin-4-one], the Ki in assay [1] (Lineweaver–Burk plots) stood at 0.0136 ± 0.00143 µM; in assay [2] (Lineweaver–Burk plots), 0.0104 ± 0.00133 µM. Also, the “Selectivity (BChE/AChE)” value in assay [1] is 0.77. Besides, the IC50 was determined as 79.1 µM in assay [3] (Homo sapiens, HUVEC, 24 h, read-out: HUVEC IC50, MTT, 24 hours treatment, mean ± SD, n = 3) and 79.71 ± 0.52 µM in assay [3] (MTT, 24 hours treatment, mean ± SD, n = 3, read-out: HUVEC IC50). Moreover, in assay [2] (Lineweaver–Burk plots), the “form of inhibition of BChE” value is “competitive”. The “BChE Ki, fold more inhibitory than donepezil” value in assay [2] was 5.98 fold. Moreover, the “BChE Ki, fold more inhibitory than tacrine” value in assay [2] was determined as 16.24 fold.

`C=CCN1C(=O)/C(=C/c2cc(CN3CCN(c4ncccn4)CC3)c(O)c(OC)c2)SC1=S` [Compound 7, (Z)-3-Allyl-5-(4-hydroxy-3-methoxy-5-{[4-(pyrimidin-2-yl)piperazin-1-yl]methyl}benzylidene)-2-thioxothiazolidin-4-one]: the Ki in assay [1] (Lineweaver–Burk plots) turned out to be 0.0254 ± 0.00945 µM; in assay [2] (Lineweaver–Burk plots) it was 0.029 ± 0.00754 µM. Also, in assay [1], the “Selectivity (BChE/AChE)” value is reported as 1.14. For the same compound, in assay [3] (setting [6]), the IC50 was 43.3 ± 0.47 µM. In addition, the “BChE Ki, fold more inhibitory than tacrine” value in assay [2] stood at 5.85 fold.

Consider `C=CCN1C(=O)/C(=C/c2cc(CN3CCOCC3)c(O)c(OCC)c2)SC1=S` [Compound 8, (Z)-3-Allyl-5-[4-hydroxy-3-ethoxy-5-(morpholinomethyl)benzylidene]-2-thioxothiazolidin-4-one], for which the Ki in assay [1] (Lineweaver–Burk plots) turned out to be 0.0851 ± 0.00845 µM; in assay [2] (Lineweaver–Burk plots), 0.121 ± 0.0127 µM. Also, the “Selectivity (BChE/AChE)” value in assay [1] is on record as 1.42.

In the case of `C=CCN1C(=O)/C(=C/c2cc(CN3CCN(C(=O)OCC)CC3)c(O)c(OCC)c2)SC1=S` [Compound 9, (Z)-3-Allyl-5-{4-hydroxy-3-ethoxy-5-[(4-ethoxycarbonylpiperazin-1-yl)methyl]benzylidene}-2-thioxothiazolidin-4-one], the results for the Ki in assay [1] (Lineweaver–Burk plots) and in assay [2] (Lineweaver–Burk plots) were 0.0315 ± 0.00515 µM and 0.0405 ± 0.00663 µM, respectively. Besides, the “Selectivity (BChE/AChE)” value in assay [1] was 1.29.

For the compound `C=CCN1C(=O)/C(=C/c2cc(CN3CCN(c4ccccc4)CC3)c(O)c(OCC)c2)SC1=S` [Compound 10, (Z)-3-Allyl-5-{4-hydroxy-3-ethoxy-5-[(4-phenylpiperazin-1-yl)methyl]benzylidene}-2-thioxothiazolidin-4-one], the Ki in assay [1] (Lineweaver–Burk plots) is 0.0186 ± 0.00205 µM; in assay [2] (Lineweaver–Burk plots), 0.0216 ± 0.00523 µM. For the same compound, the “Selectivity (BChE/AChE)” value in assay [1] was determined as 1.16. Moreover, the half-inhibitory concentration (IC50) in assay [3] (setting [6]) worked out at 47.4 ± 0.67 µM.

In the case of `C=CCN1C(=O)/C(=C/c2cc(CN3CCc4ccccc4C3)c(O)c(OCC)c2)SC1=S` [Compound 11, (Z)-3-Allyl-5-{3-[(3,4-dihydroisoquinolin-2(1H)-yl)methyl]-4-hydroxy-5-ethoxybenzylidene}-2-thioxothiazolidin-4-one], in assay [1] (Lineweaver–Burk plots), the “form of inhibition of AChE” value is reported as “competitive” and the affinity corresponds to a Ki of 0.0127 ± 0.00196 µM. Also, in assay [3] (setting [6]), the IC50 was 69.14 ± 0.59 µM. This compound also yielded a Ki in assay [2] (Lineweaver–Burk plots) of 0.0251 ± 0.00641 µM. In assay [2], the “BChE Ki, fold more inhibitory than donepezil” value is recorded as more than 2.49 fold and the “BChE Ki, fold more inhibitory than tacrine” value is reported as “over 6.75 fold”.

Regarding `C=CCN1C(=O)/C(=C/c2cc(Br)c(O)c(CN3CCOCC3)c2)SC1=S` [Compound 12, (Z)-3-Allyl-5-[3-bromo-4-hydroxy-5-(morpholinomethyl)benzylidene]-2-thioxothiazolidin-4-one], the results for the Ki in assay [1] (Lineweaver–Burk plots) and in assay [2] (Lineweaver–Burk plots) were 0.043 ± 0.00877 µM and 0.0972 ± 0.0179 µM, respectively.

On to `C=CCN1C(=O)/C(=C/c2cc(CN3CCOCC3)c(O)c(CN3CCOCC3)c2)SC1=S` [Compound 13, (Z)-3-Allyl-5-[4-hydroxy-3,5-bis(morpholinomethyl)benzylidene]-2-thioxothiazolidin-4-one], for which the inhibition constant (Ki) in assay [1] (Lineweaver–Burk plots) came to 0.0265 ± 0.00921 µM; in assay [2] (Lineweaver–Burk plots), 0.112 ± 0.0235 µM.

As for `O=C(CCN1CCN(Cc2ccc(F)cc2)CC1)n1c2ccccc2c2ccccc21` [III], the IC50 in assay [4] is 5.7 µM.

On to `c1ccc2cc(-c3nc4ccccn4c3CN3CCOCC3)ccc2c1` [II], for which the IC50 in assay [5] is 0.0255 µM; in assay [4], 0.0126 µM.

Consider `O=C(O)c1ccc(/C=N/n2c(CN3CCN(c4ncccn4)CC3)nc3ccccc3c2=O)c(C(=O)O)c1` [IV], for which the IC50 in assay [5] was 8.65 µM; in assay [4], 9.99 µM.

Take `O=C(c1ccc2nc(-c3ccc[nH]3)oc2c1)N1CCOCC1` [I]: the IC50 in assay [5] was 0.099 µM; in assay [4], 0.0578 µM.

As for `CN(C)c1ccc(/C=C2\SC(=S)N(CC(=O)N3CCOCC3)C2=O)cc1` [VII], the 50% inhibitory concentration (IC50) in assay [4] (rhodanine derivatives) is 52.3 µM.

In the case of `O=C(CN1C(=O)CSC1=S)Nc1ccc([N+](=O)[O-])cc1` [VI], the concentration for half-maximal inhibition (IC50) in assay [5] (rhodanine derivatives) was 7.9 µM; in assay [4] (rhodanine derivatives), 30.8 µM.

Regarding `COc1cc(/C=N\NC(=O)c2ccncc2)cc(CN2CCN(c3ccccc3)CC2)c1O` [V], the IC50 in assay [4] is 0.23 µM.
